Measured values reported in patent US9261497B2, “Method of treating cancer with modulators of SCFSkp2” (New York University, priority 2012, dated 2016).

Columns and labels:
[1] = target: T1, SCF-Skp2 (Skp2-Cks1) (Homo sapiens, UniProt P61024+Q13309); test: In vitro ubiquitylation assay, Skp2-mediated p27 ubiquitylation (Wild-Type Cks1); assay type: biochemical; settings: 50 μM compound, immunoblot for p27-(Ub)n
T1 construct: made in house; host or cells: cell-free: rabbit reticulocyte lysate (TNT T7 Coupled Reticulocyte Lysate System, Promega) from pcDNA3.1 plasmids
T1 sequence (Q13309 whole entry): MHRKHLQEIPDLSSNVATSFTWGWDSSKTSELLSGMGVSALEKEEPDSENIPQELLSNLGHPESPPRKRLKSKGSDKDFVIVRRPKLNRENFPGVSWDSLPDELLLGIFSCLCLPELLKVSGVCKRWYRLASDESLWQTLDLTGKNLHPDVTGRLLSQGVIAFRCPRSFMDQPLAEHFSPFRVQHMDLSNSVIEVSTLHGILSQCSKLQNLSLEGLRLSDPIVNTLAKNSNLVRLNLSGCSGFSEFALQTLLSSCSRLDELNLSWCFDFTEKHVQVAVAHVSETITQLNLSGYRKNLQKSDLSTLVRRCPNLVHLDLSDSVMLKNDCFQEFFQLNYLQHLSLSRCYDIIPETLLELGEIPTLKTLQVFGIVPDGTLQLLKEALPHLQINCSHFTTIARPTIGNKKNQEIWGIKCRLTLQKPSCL
T1 sequence (P61024 whole entry): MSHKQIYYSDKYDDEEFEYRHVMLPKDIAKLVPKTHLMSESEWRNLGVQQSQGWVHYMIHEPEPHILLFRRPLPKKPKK
T1 sequence (P63208 whole entry partner): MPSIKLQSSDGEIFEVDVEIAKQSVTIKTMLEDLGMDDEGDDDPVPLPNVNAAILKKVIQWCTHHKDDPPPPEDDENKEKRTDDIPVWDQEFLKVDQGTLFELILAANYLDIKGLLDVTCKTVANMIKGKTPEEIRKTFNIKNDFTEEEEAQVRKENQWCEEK
T1 sequence (Q13616 whole entry partner): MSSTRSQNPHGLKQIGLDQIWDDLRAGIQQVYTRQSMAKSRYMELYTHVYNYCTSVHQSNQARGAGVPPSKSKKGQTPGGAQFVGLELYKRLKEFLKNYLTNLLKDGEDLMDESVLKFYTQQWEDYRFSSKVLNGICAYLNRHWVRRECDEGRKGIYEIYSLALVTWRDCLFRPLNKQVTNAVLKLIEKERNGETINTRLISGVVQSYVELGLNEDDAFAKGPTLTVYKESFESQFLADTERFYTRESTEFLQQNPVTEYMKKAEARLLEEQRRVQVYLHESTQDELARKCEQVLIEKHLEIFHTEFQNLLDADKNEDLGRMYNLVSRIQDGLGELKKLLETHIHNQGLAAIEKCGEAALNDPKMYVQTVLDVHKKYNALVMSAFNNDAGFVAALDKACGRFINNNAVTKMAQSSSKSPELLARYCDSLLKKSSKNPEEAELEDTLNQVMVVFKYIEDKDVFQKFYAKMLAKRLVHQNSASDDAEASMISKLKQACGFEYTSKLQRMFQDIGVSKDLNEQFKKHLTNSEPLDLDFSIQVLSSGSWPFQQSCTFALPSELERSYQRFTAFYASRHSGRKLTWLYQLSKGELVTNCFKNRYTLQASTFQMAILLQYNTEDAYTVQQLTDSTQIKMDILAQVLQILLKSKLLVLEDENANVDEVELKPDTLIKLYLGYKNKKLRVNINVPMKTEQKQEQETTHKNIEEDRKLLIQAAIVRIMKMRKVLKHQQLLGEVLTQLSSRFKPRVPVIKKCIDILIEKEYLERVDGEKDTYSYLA
T1 sequence (P62877 whole entry partner): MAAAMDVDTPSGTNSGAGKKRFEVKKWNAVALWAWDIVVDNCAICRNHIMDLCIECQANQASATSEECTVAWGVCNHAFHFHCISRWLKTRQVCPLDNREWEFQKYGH
Protocol: The 96 hits were tested in an in vitro ubiquitylation assay driven by in vitro transcribed/translated Skp2, Cks1, and p27 (Sitry et al., “Three Different Binding Sites of Cks1 are Required for p27-ubiquitin Ligation,” J. Biol. Chem. 277:42233-42240 (2002)). Assay sensitivity was established for various criteria (FIG. 1B): Enhanced ubiquitylation with Cks1 (lane 2), kinase activity requirement (lane 3), and responsiveness to known inhibitors of Cullin (lane 5) or Cdk2 (lane 6) activity (Meijer et al., “Biochemical and Cellular Effects of Roscovitine, a Potent and Selective Inhibitor of the Cyclin-dependent Kinases cdc2, cdk2 and cdk5,” Eur. J. Biochem. 243:527-536 (1997); Soucy et al., “An Inhibitor of NEDD8-activating Enzyme as a New Approach to Treat Cancer,” Nature 458:732-736 (2009), which are hereby incorporated by reference in their entirety). Compounds showing at least 50% inhibition of Skp2-mediated p27 ubiquitylation (FIG. 1C) were counter-screened for inactivity against two anti-target E3 ligases: MDM2 and SCF-βTrCP (FIGS. 6A-B). Compounds C1 and C2 were identified from the primary VLS and C16 and C20 were identified from a second VLS (FIG. 2).
(§1) In vitro reconstituted assays were performed as previously described (Dorrello et al., “S6K1- and betaTRCP-mediated Degradation of PDCD4 Promotes Protein Translation and Cell Growth,” Science 314:467-471 (2006), which is hereby incorporated by reference in their entirety) with the exceptions of the use of (1) unlabeled proteins (wild-type and mutant Skp2 and Cks1, p27, Flag-βTrCP, and HA-PDCD4) generated by in vitro transcription-translation (TNT T7 Coupled Reticulocyte Lysate System, Promega); (2) chain elongation with non-methylated ubiquitin; and (3) immunoblotting to detect poly-ubiquitylation. The following reagents were obtained from Boston Biochem: UBE1, His-UbcH3, His-UbcH5c, Ubiquitin, and Ubiquitin Aldehyde. Additional reagents include CDK2/CyclinE1 (Sigma-Aldrich), S6K (Invitrogen), Okadaic acid (Sigma), and DMSO (Sigma-Aldrich). For ubiquitin charging, UBE1 (100 nM) and His-UbcH3 (10 ng/μl) were incubated with ubiquitin (2.5 μg/μl), ATP (2 mM), and 10 μM […] of inhibitors or Vehicle control for 60 min at 30° C. Reactions were stopped in nondenaturing 2× Sample Buffer, with the addition of 10% Beta-mercaptoethanol as indicated, and analyzed by Western blotting.

[2] = system: MCF-7; test: Cell cycle FACS analysis, MCF-7; assay type: cell-based, human
Protocol: Whole cell extracts were prepared and immunoblotted as previously described Dorrello et al., “S6K1- and betaTRCP-mediated Degradation of PDCD4 Promotes Protein Translation and Cell Growth,” Science 314:467-471 (2006), which is hereby incorporated by reference in its entirety. For knockdown of Skp2 or p27, shRNAs were induced with 2 ng/ml doxycycline for 48 hours, with the last 16 hours co-treated with 0.1% Vehicle or 10 μM inhibitors as indicated. For cycloheximide chase, cells were pretreated 16 h with 0.1% Vehicle or 10 μM inhibitors, followed by 20 ng/ml cycloheximide (Sigma) and whole cell extracts collected for each time point. 20 ng/ml cycloheximide (Sigma) was added to each plate and whole cell extract was collected for each time point. Scanning densitometry was performed on immunoblots using Image J software. […] 1×10^6 cells were fixed in 70% ethanol for 2 h, treated with 200 μg/ml RNase A (Invitrogen) for 30 minutes, and stained with 20 μg/ml Propidium Iodine (Sigma). All samples were assayed in triplicates. Signal was detected using the Becton Dickson LSRII flow cytometer and cell cycle profiles were analyzed with FloJo.

[3] = system: JeKo-1; test: Cell viability, JeKo-1 mantle cell lymphoma; assay type: cell-based, human; settings: 24 hours, CalcuSyn
Protocol: Viable and metabolically active cells were assayed using CellTiter-Blue (Promega) or PrestoBlue (Invitrogen) following manufacturer's instruction. In a 96 well plate format, 15×10^3 cells were pretreated with 0.1% Vehicle or increasing concentration of inhibitors as noted (for 16 h, 24 h, 48 h, and/or 72 hr) and fluorescence was detected on the SpectraMax M2e (Molecular Devices) after 30 min incubation with dye.

[4] = target: T2, Q52L-Cks1 mutant (Homo sapiens, UniProt P61024+Q13309, Q52L); test: In vitro ubiquitylation assay with Q52L-Cks1 mutant; assay type: biochemical; settings: 50 μM compound
T2 construct: made in house; host or cells: cell-free: rabbit reticulocyte lysate (TNT T7 Coupled Reticulocyte Lysate System, Promega) from pcDNA3.1 plasmids
T2 sequence (Q13309 whole entry): as the sequence (Q13309 whole entry) above
T2 sequence (P61024 whole entry Q52L): as the sequence (P61024 whole entry) above, with Q52L counted along it
T2 sequence (P63208 whole entry partner): as the sequence (P63208 whole entry partner) above
T2 sequence (Q13616 whole entry partner): as the sequence (Q13616 whole entry partner) above
T2 sequence (P62877 whole entry partner): as the sequence (P62877 whole entry partner) above
Text: To interrogate the compound-contacting residues on the Skp2-Cks1 interface, mutants of Skp2 and Cks1 were designed based on the in silico dockings. The predicted electrostatic interactions between the positive charge on the NH2 side group in Q52-Cks1 with the COOH-group in C1 and C16 should be lost when mutated to a neutral-charge leucine (FIG. 7B). […] This confirms that the Q52-Cks1 residue is important for only C1 and C16 activity, as predicted by the in silico dockings. […] The Skp2-R294A and the Cks1-R44A/H mutants lacked ubiquitylation activity (FIG. 7C) preventing the interrogation of these residues' contribution to the activity of C2 and C20. […] Thus, the predicted three-dimensional mode of interaction of the compounds with Skp2-Cks1 was validated at a chemical and protein level.
as §1

[5] = system: ECC-1 cells; test: ECC-1 cell proliferation (MTS assay); assay type: cell-based, human; settings: for Increase in nuclear p27 and inhibition of cell proliferation following Skp2 knock-down: ECC-1, Skp2 siRNA, knock-down by 85%; for Inhibition of cell proliferation: ECC-1 transfected with control siRNA (FIG. 14B)
Protocol: ECC-1 cells in complete media were seeded at 1.2×10^5/well in 12-well plates and after 24 h the cells were transfected with either control siRNA or 10 nM Skp2 siRNA using HiPerfect transfection reagent (Qiagen; Valencia, Calif.) and siRNA to three different sites including a pool of siRNAs as shown in the experiment, as previously described (Huang et al., “Estrogen and Progesterone Regulate p27kip1 Levels via the Ubiquitin-Proteasome System: Pathogenic and Therapeutic Implications for Endometrial Cancer,” PLoS One 7:e46072 (2012), which is hereby incorporated by reference in its entirety). […] To determine the effect of C2 and C20 on cell proliferation after knock-down of Skp2, the cells were seeded in 96-well plates at a density of 1×10^4 in complete media, transfected, synchronized, treated with C2 and C20, and cell proliferation determined, as described above.

[6] = system: p27 in primary ECA cells; test: p27 immunoblot in primary endometrial carcinoma (ECA) cells; settings: 10 μM for 18 h; for Increase of p27 levels over the Vehicle-treated control: grade I, total cell lysates; for Decrease of p27 in the cytoplasm / Increase of nuclear p27: grade II type I
Protocol: The endometrial carcinoma cell line (derived from a well-differentiated endometrioid Type I ECA) ECC-1 cells (ATCC, Manassas, Va.) were plated at a density of 3×10^5/well/6-well plate and grown in DMEM:F12 supplemented with 10% FBS (BioWest, Ocala, Fla.). The cell line was passaged in the laboratory for fewer than 6 months after receipt. […] ECAs were plated at a density of 2.2×10^6 cells/6-well Primaria® plates (BD Biosciences, San Jose, Calif.) in McCoys 5A media without phenol red containing 10% charcoal-stripped FBS, 2 mM L-Glutamine (Invitrogen) and antimycotic antibiotic solution (Mediatech, Hendon, Va.).
For subcellular fractionation, following treatments, cells were separated into nuclear and cytoplasmic fractions using the NE-PER kit (Thermo Scientific), and 10 μg cytoplasmic and nuclear protein fractions were loaded onto SDS-PAGE for immunoblotting. […] The membranes were incubated with peroxidase-conjugated goat anti-rabbit or goat anti-mouse secondary antibodies in TBST (1:2000; Thermo Scientific). […] Protein bands were resolved using the SuperSignal West Dura kit (Thermo Scientific), visualized by exposure to X-ray film (HyBlot; Denville Scientific, Denville, N.J.), and following densitometric scanning (Kodak Logic-100), the protein bands were quantified by normalizing to β-actin and compared to the untreated control, and the values represented by the graphs of relative protein levels compared to actin in each well and shown as % of Vehicle control.

## O=C(O)COc1ccc(Br)cc1C=C1SC(=S)N(Cc2cccnc2)C1=O [Compound C1]
[1]
  Inhibition of Skp2-mediated p27 ubiquitylation: active
[2]; 5 μM C1 for 16 hours
  Increase in G2-M phase: 43%
  Reduction in G1 phase: 35%
[3]
  IC50: 4.8 µM
[4]
  Inhibition of p27 ubiquitylation with Q52L-Cks1: inactive

## COC(=O)C1=C(C)N(c2ccc(Br)cc2)C(=O)C1=Cc1ccccc1O [Compound C2]
[5]
  Increase in nuclear p27 and inhibition of cell proliferation following Skp2 knock-down: completely abrogated
  Inhibition of cell proliferation: 29%
[6]
  Increase of p27 levels over the Vehicle-treated control: 1.9 fold
  Decrease of p27 in the cytoplasm: approximately 25%
  Increase of nuclear p27: 67%
[1]
  Inhibition of Skp2-mediated p27 ubiquitylation: strongly inhibited
[2]
  Cellular phenotype: no significant cellular phenotype
[3]
  IC50: 9.3 µM
[4]
  Inhibition of p27 ubiquitylation with Q52L-Cks1: strongly inhibited

## O=C(O)COc1ccc(C=C2SC(=O)N(CC(=O)c3ccc(Cl)cc3)C2=O)cc1 [Compound C16]
[1]
  Inhibition of Skp2-mediated p27 ubiquitylation: active
[2]
  Cellular phenotype: no significant cellular phenotype
[4]
  Inhibition of p27 ubiquitylation with Q52L-Cks1: inactive

## O=C(NN=Cc1cc(Br)cc(Br)c1O)C(=Cc1ccccc1O)NC(=O)c1ccccc1 [Compound C20]
[5]
  Increase in nuclear p27 and inhibition of cell proliferation following Skp2 knock-down: completely abrogated
  Inhibition of cell proliferation: 27%
[6]
  Increase of p27 levels over the Vehicle-treated control: 3 fold
  Decrease of p27 in the cytoplasm: approximately 25%
  Increase of nuclear p27: 46%
[1]
  Inhibition of Skp2-mediated p27 ubiquitylation: strongly inhibited
[2]
  Cellular phenotype: no significant cellular phenotype
[4]
  Inhibition of p27 ubiquitylation with Q52L-Cks1: strongly inhibited
